Measurements from PubChem BioAssay AID383 (SGCOxCompounds, 2006).

Molecular target: Dual specificity protein kinase CLK3 (Homo sapiens) (UniProt P49761)
Assay: ligand binding to human CDC-like kinase 3 – biophysical, thermal shift, recombinant protein (AID 383)
Settings: at 10 µM, protein 1.5 µM, buffer 10 mM HEPES, pH 7.5, NaCl 150 mM, with 50 µM L-Arg/L-Glu (1:1), active compounds read high

Dual specificity protein kinase CLK3 (Homo sapiens), sequence (P49761 whole entry, looked up): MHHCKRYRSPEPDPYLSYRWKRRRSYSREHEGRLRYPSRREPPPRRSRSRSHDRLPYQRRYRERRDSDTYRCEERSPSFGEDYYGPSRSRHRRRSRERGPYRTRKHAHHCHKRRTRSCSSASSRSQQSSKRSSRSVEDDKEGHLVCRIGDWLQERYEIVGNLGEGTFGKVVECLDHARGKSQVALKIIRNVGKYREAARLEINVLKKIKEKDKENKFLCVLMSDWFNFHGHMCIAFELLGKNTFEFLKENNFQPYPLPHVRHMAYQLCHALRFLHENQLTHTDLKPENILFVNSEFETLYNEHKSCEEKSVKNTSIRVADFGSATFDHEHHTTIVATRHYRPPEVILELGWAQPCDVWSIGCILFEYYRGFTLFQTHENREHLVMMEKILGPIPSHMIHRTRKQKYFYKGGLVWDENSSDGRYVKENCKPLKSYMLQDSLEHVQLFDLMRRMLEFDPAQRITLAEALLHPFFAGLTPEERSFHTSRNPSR

Point of comparison: `OCC(O)CCO/N=C1/C(c2c(O)[nH]c3ccccc23)=Nc2ccccc21` (stereo not drawn), Tm shift 4 Celsius. Against it:
- O=C1NC(=O)C(c2c[nH]c3ccccc23)=C1c1c[nH]c2ccccc12 — lower, 3.2 Celsius
- O=Nc1c(-c2c(O)[nH]c3ccc(I)cc23)[nH]c2ccccc12 — higher, 4.5 Celsius
- N#C/C(=C1\Nc2ccccc2S1)c1ccnc(NCCc2cccnc2)n1 — higher, 4.9 Celsius
- Cc1cc(Nc2nc(-c3ccccc3)nc3ccccc23)n[nH]1 — higher, 4.1 Celsius
- O=Nc1c(-c2c(O)[nH]c3ccc(S(O)(O)O)cc23)[nH]c2ccccc12 — higher, 4.7 Celsius
- O=C(c1ccc(Nc2nccc(-c3cc4ccccc4s3)n2)cc1)N1CCC(N2CCCC2)CC1 — higher, 6.3 Celsius
- Cc1[nH]c(/C=C2\C(=O)Nc3ccc(S(=O)(=O)N(C)c4cccc(Cl)c4)cc32)c(C)c1C(=O)N1CCN(C)CC1 — lower, 3.7 Celsius

Same assay, conditions: at 10 µM, protein 1.7 µM, buffer 10 mM HEPES, pH 7.5, NaCl 150 mM, with 50 µM L-Arg/L-Glu (1:1), active compounds read high

Point of comparison: `COc1ccc(Nc2nc(N)c(C(=O)c3ccc(Cl)cc3)s2)cc1`, Tm shift 3.7 Celsius. Against it:
- Nc1nc(Nc2cccc(Cl)c2)sc1C(=O)c1ccc(F)cc1 — lower, 3.4 Celsius
- COc1ccc(Nc2nc(N)c(C(=O)c3ccc(OC)cc3)s2)cc1 — higher, 4.3 Celsius
- Nc1nc(Nc2ccc(F)cc2)sc1C(=O)c1ccccc1 — lower, 3.2 Celsius

Same assay, conditions: at 10 µM, protein 1.8 µM, buffer 10 mM HEPES, pH 7.5, NaCl 150 mM, with 50 µM L-Arg/L-Glu (1:1), active compounds read high

Point of comparison: `Cc1c2ccncc2c(C)c2c1[nH]c1ccccc12`, Tm shift 4.2 Celsius. Against it:
- Cn1cc(/C=C2\C(=O)Nc3ccc(S(N)(=O)=O)cc32)c2ccccc21 — lower, 3.2 Celsius
- Nc1ncnc2c1c(I)cn2[C@@H]1O[C@H](CO)C(O)C1O (stereo partly drawn) — higher, 7.5 Celsius
- O=c1cc(-c2ccc(O)cc2)oc2cc(O)cc(O)c12 — lower, 3.1 Celsius
- O=Nc1c(-c2c(O)[nH]c3ccccc23)[nH]c2ccccc12 — higher, 4.6 Celsius
- CC(C)n1cnc2c(Nc3cccc(Cl)c3)nc(NCCO)nc21 — higher, 4.6 Celsius
- COc1cc(/C=C/C(=O)CC(=O)/C=C/c2ccc(O)c(OC)c2)ccc1O — higher, 5.3 Celsius
- CN(C)CCCn1cc(C2=C(c3c[nH]c4ccccc34)C(=O)NC2=O)c2ccccc21 — lower, 3.5 Celsius
- NC1=N/C(=C2/CCNC(=O)c3[nH]c(Br)cc32)C(=O)N1 — higher, 7.2 Celsius
- CC1N=C2SC=CN2C(=O)C1CCN1CCC(=C(c2ccccc2)c2ccc(F)cc2)CC1 (stereo not drawn) — lower, 3.8 Celsius
- NC(=O)c1ccc(-c2nc(-c3ccc4c(c3)OCCO4)c(-c3ccccn3)[nH]2)cc1 — higher, 4.8 Celsius
- CN(C)S(O)(O)c1ccc2c(c1)/C(=C/c1cc3c([nH]1)CCCC3)C(=O)N2 — lower, 4.1 Celsius

Same assay, conditions: at 10 µM, protein 2 µM, buffer 10 mM HEPES, NaCl 150 mM, with 50 mM Arg/Glu, active compounds read high

Point of comparison: `CC(C)C(CO)Nc1nc(Nc2cccc(Cl)c2)c2ncn(C(C)C)c2n1` (stereo not drawn), Tm shift 3.88 Celsius. Against it:
- NC1=N/C(=C2\CCNC(=O)c3[nH]ccc32)C(=O)N1 — higher, 4.35 Celsius
- CCC(CO)Nc1ccc2ncc(-c3ccc(O)cc3)n2n1 (stereo not drawn) — higher, 4.43 Celsius
- Nc1ncnc2c1c(I)cn2[C@@H]1O[C@H](CO)C(O)C1O (stereo partly drawn) — higher, 7.25 Celsius
- N=C(N)SCCCn1cc(C2=C(c3c[nH]c4ccccc34)C(=O)NC2=O)c2ccccc21 — lower, 3.37 Celsius
- CC(=O)Nc1cccc(-c2cnc3ccc(N[C@H](CO)C(C)C)nn23)c1 — higher, 4.32 Celsius
- CC(C)n1cnc2c(Nc3cccc(Cl)c3)nc(NCCO)nc21 — lower, 3.76 Celsius
- CC(=O)c1cccc(-c2cnc3ccc(N[C@H](CO)C(C)C)nn23)c1 — lower, 3.77 Celsius
- CC(C)[C@@H](CO)Nc1ccc2ncc(-c3ccc(C#N)cc3)n2n1 — higher, 4.58 Celsius
- O=c1c(O)c(-c2ccc(O)c(O)c2)oc2cc(O)cc(O)c12 — higher, 4.2 Celsius
- NC1=N/C(=C2/CCNC(=O)c3[nH]c(Br)cc32)C(=O)N1 — higher, 8.87 Celsius
- Nc1nc(Nc2ccc(S(N)(=O)=O)cc2)nn1C(=S)Nc1c(F)cccc1F — higher, 15.1 Celsius
- CCC(CO)Nc1ccc2ncc(-c3ccc(C(=O)O)cc3)n2n1 (stereo not drawn) — higher, 3.99 Celsius

Same assay, conditions: at 10 µM, protein 2 µM, buffer 10 mM HEPES, pH 7.5, NaCl 150 mM, active compounds read high

Point of comparison: `CCC(CO)Nc1ccc2ncc(-c3cccc(OC(F)(F)F)c3)n2n1` (stereo not drawn), Tm shift 3.66 Celsius. Against it:
- CCC(CO)Nc1ccc2ncc(-c3ccc(OC)nc3)n2n1 (stereo not drawn) — higher, 4.48 Celsius
- Nc1ccc(-c2cnn3ccc(Nc4cccc(Cl)c4)nc23)cc1 — lower, 3.58 Celsius
- CC(C)[C@@H](CO)Nc1ccc2ncc(-c3cccc(OC(F)(F)F)c3)n2n1 — higher, 4.02 Celsius
- N#Cc1ccc(-c2cnc3ccc(NC4CCOCC4)nn23)cc1 — higher, 3.76 Celsius
- Clc1cccc(Nc2ccn3ncc(-c4ccc5c(c4)OCO5)c3n2)c1 — higher, 6.07 Celsius
- CCC(CO)Nc1ccc2ncc(-c3cccc(C(C)=O)c3)n2n1 (stereo not drawn) — lower, 3.42 Celsius
- COc1cccc(-c2cnn3ccc(Nc4cccc(Cl)c4)nc23)c1 — higher, 4.61 Celsius
- CC(C)[C@@H](CO)Nc1ccc2ncc(-c3cccc(O)c3)n2n1 — higher, 4.02 Celsius
- CCC(CO)Nc1ccc2ncc(-c3ccc(F)c(Cl)c3)n2n1 (stereo not drawn) — lower, 3.6 Celsius

Same assay, conditions: at 10 µM, protein 2 µM, buffer 50 mM HEPES, pH 7.5, NaCl 500 mM, active compounds read high

Point of comparison: `O=c1c(O)c(-c2cc(O)c(O)c(O)c2)oc2cc(O)cc(O)c12`, Tm shift 3.25 Celsius. Against it:
- NCCCn1cc(C2=C(c3c[nH]c4ccccc34)C(=O)NC2=O)c2ccccc21 — lower, 3.18 Celsius
- O=C1C(=O)C(c2cc(O)c(O)c(O)c2)Oc2cc(O)cc(O)c21 (stereo not drawn) — lower, 3.08 Celsius
- O=c1c(O)c(-c2ccc(O)c(O)c2)oc2cc(O)cc(O)c12 — lower, 3.12 Celsius
- O=c1cc(-c2ccc(O)c(O)c2)oc2cc(O)cc(O)c12 — higher, 4.28 Celsius
- CCN1/C(=C/C(C)=O)Sc2ccc(OC)cc21 — lower, 3.16 Celsius
